Patent publication US20230266302A1, “SYNTHESIS AND USE OF N-BENZYL SULFONAMIDES” (THE UNIVERSITY OF TULSA, priority 2020, published 2023)

Legend:
Assay in all cases: ATP level assay (CellTiter-Glo), percent of control
Assay type in all cases: cell-based
[1] = tested on: BxPC3 (pancreatic cancer); conditions: two hour incubation; for activity at 100 µM: Homo sapiens, BXPC-3, 2 h, compound alone, control DMSO, read-out: POC (percent of control) BxPC3
Excerpt: (§1) In the present method, the method of using the available assays has been modified to measure the short-term effect of compounds of interest on ATP levels in the cells. […] In the modified method, the control and test cells are initially treated with the metabolic inhibitor for a period of about thirty minutes to about four hours. Typically, the treatment of the cells with the metabolic inhibitor is for one hour prior to adding the compound to be screened for anti-cancer properties. However, simultaneous treatment with the metabolic inhibitor and the compound being screened should provide satisfactory results. […] ATP synthesis in cells occurs over multiple biochemical pathways. These pathways are very responsive to metabolic inhibitors and/or changes in available nutrients. By incorporating a metabolic inhibitor which is known to impact certain pathways, the disclosed method provides for measurement of a compound's direct effects on the remaining metabolic pathways available for ATP synthesis in the cell.
(§2) Following treatment of the control and test cells with the metabolic inhibitor, the method calls for addition of the compound to be screened for anti-cancer properties to the cells. Following addition of the compound of interest, the assay is allowed to continue for about one hour to about four hours or depending on the luminescing agent up to eighteen hours. However, approximately 60 minutes will be sufficient to determine the ATP inhibiting effect of the compound to be screened on the cells. Following completion of the selected time period, the ATP level within the cell is determined. ATP levels can be determined by luminescence according to standard measuring procedures, i.e. the luminescence level of the assay from the living cells treated with the two component composition is compared to the luminescence level of the assay from the living cells without the two component composition, i.e., the control experiment. Thus, the ATP levels are determined without killing the cells during the incubation of the cells in the presence of the compound of interest. As a result, the measured reduction in ATP level corresponds directly to the inhibition of the metabolic pathways uninhibited by the metabolic blocker.
(§3) A wide variety of ATP luminescing detection reagents are available commercially. So long as the reagent produces a luminescence in the presence of ATP, the reagent will be suitable for use in the present method. Suitable reagents include but are not limited to any ATP dependent luciferase such as but not limited to firefly luciferase, other modified luciferase based reagents, i.e. luciferase derivatives. According to the rapid method for determining the anti-cancer activity of a compound, a sample of living cells is distributed across a number of testing wells. Typically, 96-well plates are used; however, the number of wells is not critical to the current method. When using a 96-well plate the number of living cells will commonly be about 20,000. The sample wells contain a cell growth medium to promote cell health and growth and an additive to prevent bacterial contamination of the wells. One common example of the cell growth medium is DMEM with 10% FBS as described above. One example of the additive to prevent bacterial contamination is a solution of penicillin G and streptomycin referred to commonly as Pen-Strep. The Pen-Strep solution typically contains 5000 units of penicillin G and 5000 micrograms of streptomycin. Thus, the rapid determination of anti-cancer compounds can be carried out using the following method. • The desired number of cells are distributed in a 96-well plate containing 100 μL DMEM plus 10% FBS with optional Pen-Strep. • After 24 hours, cells are treated with the compound of interest or a 5% solution of dimethyl sulfoxide (DMSO) in water as a control. • The time period for exposure to the compound of interest and the DMSO control will vary depending on the luminescing detection reagent. […]

H293 (kidney cancer) = conditions: two hour incubation; for activity at 100 µM: 2 h, compound alone, control DMSO, read-out: POC (percent of control) H293
Excerpt: as §1, §2, §3

HDF (normal cells) = conditions: two hour incubation; for activity at 100 µM: 2 h, compound alone, control DMSO, read-out: POC (percent of control) HDF
Excerpt: as §1, §2, §3

HeLa (cervical cancer) = conditions: two hour incubation; for activity at 100 µM: Homo sapiens, HeLa, 2 h, compound alone, control DMSO, read-out: POC (percent of control) HeLa
Excerpt: as §1, §2, §3

[2] = tested on: MCF10A (non-cancerous breast); conditions: two hour incubation; for activity at 100 µM: Homo sapiens, MCF-10A, 2 h, compound alone, control DMSO, read-out: POC (percent of control) MCF10A
Excerpt: as §1, §2, §3

MCF7 (breast cancer) = conditions: two hour incubation; for activity at 100 µM: Homo sapiens, MCF7, 2 h, compound alone, control DMSO, read-out: POC (percent of control) MCF7
Excerpt: as §1, §2, §3

MDA-MB (breast cancer) = conditions: two hour incubation; for activity at 100 µM: 2 h, compound alone, control DMSO, read-out: POC (percent of control) MDA-MB
Excerpt: as §1, §2, §3

NCI-H196 (lung cancer) = conditions: two hour incubation; for activity at 100 µM: NCI-H196, 2 h, compound alone, control DMSO, read-out: POC (percent of control) NCI-H196
Excerpt: as §1, §2, §3

PC3 (prostate cancer) = conditions: two hour incubation; for activity at 100 µM: 2 h, compound alone, control DMSO, read-out: POC (percent of control) PC3
Excerpt: as §1, §2, §3

SkBr3 (breast cancer) = conditions: two hour incubation; for activity at 100 µM: Homo sapiens, SK-BR-3, 2 h, compound alone, control DMSO, read-out: POC (percent of control) SkBr3
Excerpt: as §1, §2, §3

T47D (breast cancer) = conditions: two hour incubation; for activity at 100 µM: Homo sapiens, T47D, 2 h, compound alone, control DMSO, read-out: POC (percent of control) T47D
Excerpt: as §1, §2, §3

[3] = compound 100 uM + 2DG (about 10-20 mM)
[4] = compound 100 uM + rotenone (approximately 1.25 μM)

Row | Structure (SMILES) | activity at 100 µM [1] [%] | POC (percent of control) BxPC3 [1, 4] | activity at 100 µM (H293 (kidney cancer)) [%] | POC (percent of control) H293 (H293 (kidney cancer); [3]) | POC (percent of control) H293 (H293 (kidney cancer); [4]) | activity at 100 µM (HDF (normal cells)) [%] | POC (percent of control) HDF (HDF (normal cells); [3]) | POC (percent of control) HDF (HDF (normal cells); [4]) | activity at 100 µM (HeLa (cervical cancer)) [%] | POC (percent of control) HeLa (HeLa (cervical cancer); [3]) | POC (percent of control) HeLa (HeLa (cervical cancer); [4]) | activity at 100 µM [2] [%] | POC (percent of control) MCF10A [2, 3] | POC (percent of control) MCF10A [2, 4] | activity at 100 µM (MCF7 (breast cancer)) [%] | POC (percent of control) MCF7 (MCF7 (breast cancer); [3]) | POC (percent of control) MCF7 (MCF7 (breast cancer); [4]) | activity at 100 µM (MDA-MB (breast cancer)) [%] | POC (percent of control) MDA-MB (MDA-MB (breast cancer); [3]) | POC (percent of control) MDA-MB (MDA-MB (breast cancer); [4]) | further results
1 | Cc1cccc2[nH]cc(CNS(=O)(=O)c3ccc(Cl)cc3)c12 [Compound 30, 4-chloro-N-[(4-methyl-1H-indol-3-yl)methyl]benzenesulfonamide] | 15.8 | 45.7% of control | 14 | 12.8% of control | 9.5% of control | 28.2 | 28.4% of control | 66.2% of control | 28.5 | 17.8% of control | 58.4% of control | 30 | 8.4% of control | 34.6% of control | 37.4 | 11.3% of control | 36% of control | 38.6 | 41.5% of control | 48.3% of control | POC (percent of control) BxPC3 [1, 3]: 6.3% of control; activity at 100 µM (NCI-H196 (lung cancer)): 48%; POC (percent of control) NCI-H196 (NCI-H196 (lung cancer); [3]): 18.7% of control; POC (percent of control) NCI-H196 (NCI-H196 (lung cancer); [4]): 18.4% of control; activity at 100 µM (PC3 (prostate cancer)): 7.1%; POC (percent of control) PC3 (PC3 (prostate cancer); [3]): 10.6% of control; POC (percent of control) PC3 (PC3 (prostate cancer); [4]): 21.7% of control; activity at 100 µM (SkBr3 (breast cancer)): 64.1%; POC (percent of control) SkBr3 (SkBr3 (breast cancer); [3]): 41.3% of control; POC (percent of control) SkBr3 (SkBr3 (breast cancer); [4]): 58.2% of control; activity at 100 µM (T47D (breast cancer)): 16.1%; POC (percent of control) T47D (T47D (breast cancer); [3]): 13.2% of control; POC (percent of control) T47D (T47D (breast cancer); [4]): 28% of control
2 | CC(=O)n1cc(CNS(=O)(=O)c2ccc(Cl)cc2)c2ccccc21 [Compound 4, N-[(1-acetyl-1H-indole-3-yl)methyl]-4-chlorobenzenesulfonamide] | 88.4 | 71.1% of control | 88.6 | 60% of control | 65.8% of control | 88.1 | 66.8% of control | 88.6% of control | 90.6 | 67.4% of control | 84.3% of control | 59.7 | 84.8% of control | 89.8% of control | 108 | 82.2% of control | 79.2% of control | 94.7 | 63.6% of control | 71.9% of control | activity at 100 µM (NCI-H196 (lung cancer)): 72.5%; POC (percent of control) NCI-H196 (NCI-H196 (lung cancer); [3]): 49.6% of control; POC (percent of control) NCI-H196 (NCI-H196 (lung cancer); [4]): 61.5% of control; activity at 100 µM (PC3 (prostate cancer)): 93.7%; POC (percent of control) PC3 (PC3 (prostate cancer); [3]): 61.9% of control; POC (percent of control) PC3 (PC3 (prostate cancer); [4]): 61.3% of control; activity at 100 µM (SkBr3 (breast cancer)): 79.1%; POC (percent of control) SkBr3 (SkBr3 (breast cancer); [3]): 87.5% of control; POC (percent of control) SkBr3 (SkBr3 (breast cancer); [4]): 96.8% of control; activity at 100 µM (T47D (breast cancer)): 48.9%; POC (percent of control) T47D (T47D (breast cancer); [3]): 36.3% of control; POC (percent of control) T47D (T47D (breast cancer); [4]): 45.8% of control
3 | Cc1ccc(S(=O)(=O)NCc2ccc3ncccc3c2)cc1 [Compound 22, 4-methyl-N-(quinolin-6-ylmethyl)benzenesulfonamide] | 99.1 | 70.8% of control | 122 | 69.9% of control | 90.9% of control | 89.7 | 76.3% of control | 85.5% of control | 101 | 94.5% of control | 105.2% of control | 105 | 70.2% of control | 96.9% of control | 113 | 107.1% of control | 96.4% of control | 96.7 | 86.5% of control | 87.1% of control | activity at 100 µM (NCI-H196 (lung cancer)): 117%; POC (percent of control) NCI-H196 (NCI-H196 (lung cancer); [3]): 94.6% of control; POC (percent of control) NCI-H196 (NCI-H196 (lung cancer); [4]): 94.2% of control; activity at 100 µM (PC3 (prostate cancer)): 93%; POC (percent of control) PC3 (PC3 (prostate cancer); [3]): 94.5% of control; POC (percent of control) PC3 (PC3 (prostate cancer); [4]): 108.2% of control; activity at 100 µM (SkBr3 (breast cancer)): 106%; POC (percent of control) SkBr3 (SkBr3 (breast cancer); [3]): 83.5% of control; POC (percent of control) SkBr3 (SkBr3 (breast cancer); [4]): 93.5% of control; activity at 100 µM (T47D (breast cancer)): 85.3%; POC (percent of control) T47D (T47D (breast cancer); [3]): 62.5% of control; POC (percent of control) T47D (T47D (breast cancer); [4]): 109.3% of control
4 | Cc1ccc(S(=O)(=O)NCc2nccs2)cc1 [Compound 19, 4-methyl-N-(1,3-thiazol-2-ylmethyl)benzenesulfonamide] | 96.2 | 107.2% of control | 82.2 | 87.2% of control | 79.1% of control | 92.5 | 98.9% of control | 87.3% of control | 104 | 94.8% of control | 109.3% of control | 83.9 | 95.8% of control | 119.8% of control | 134 | 104% of control | 92.1% of control | 104 | 89.5% of control | 112% of control | POC (percent of control) BxPC3 [1, 3]: 98.4% of control; activity at 100 µM (NCI-H196 (lung cancer)): 117%; POC (percent of control) NCI-H196 (NCI-H196 (lung cancer); [3]): 107.3% of control; POC (percent of control) NCI-H196 (NCI-H196 (lung cancer); [4]): 94.3% of control; activity at 100 µM (PC3 (prostate cancer)): 108%; POC (percent of control) PC3 (PC3 (prostate cancer); [3]): 127.1% of control; POC (percent of control) PC3 (PC3 (prostate cancer); [4]): 98.9% of control; activity at 100 µM (SkBr3 (breast cancer)): 119%; POC (percent of control) SkBr3 (SkBr3 (breast cancer); [3]): 105.9% of control; POC (percent of control) SkBr3 (SkBr3 (breast cancer); [4]): 108.6% of control; activity at 100 µM (T47D (breast cancer)): 91.5%; POC (percent of control) T47D (T47D (breast cancer); [3]): 87.4% of control; POC (percent of control) T47D (T47D (breast cancer); [4]): 86.7% of control
